Earlier results on 3 compounds are cited in PMC12104055 (Frontiers in Pharmacology, 2025).

On the set-up of series [1]: method as in Boosman et al., 2022. The following applies: ref Boosman et al., 2022; cited from earlier work.
On the set-up of series [2]: method as in earlier work. The note with it: patients after organ transplantation, ref Prikis and Cameron, 2022, Liu et al., 2023, Michael et al.; cited from earlier work.
For series [3] the following is noted: ref Nieminen et al., 2010; cited from earlier work.

Turning to `C#Cc1cccc(Nc2ncnc3cc(OCCOC)c(OCCOC)cc23)c1` [erlotinib], the “Pharmacokinetic exposure of 75 mg erlotinib orally with ritonavir versus 150 mg erlotinib orally” value in series [1] is on record as “comparable”.

As to `C=CC[C@@H]1/C=C(\C)C[C@H](C)C[C@H](OC)[C@H]2O[C@@](O)(C(=O)C(=O)N3CCCC[C@H]3C(=O)O[C@H](/C(C)=C/[C@@H]3CC[C@@H](O)[C@H](OC)C3)[C@H](C)[C@@H](O)CC1=O)[C@H](C)C[C@@H]2OC` [tacrolimus], the “Concentration of tacrolimus during Paxlovid treatment” value in series [2] was “increase significantly”.

For `COc1ccc2c3c1O[C@H]1C(=O)CC[C@@]4(O)[C@@H](C2)N(C)CC[C@]314` [oxycodone], the “AUC of oxycodone when administered simultaneously with ritonavir” value in series [3] is recorded as “triples”.
